Experimental data as given in PubChem BioAssay AID1259407 (Chemical Carcinogenesis Research Information System (CCRIS), 2018).
Calls of active or inactive are those of the source. No rule for the calls is given here.

System: CCRIS mutagenicity, Ames/micronucleus/aberration tests
Assay: CCRIS mutagenicity studies
[1] = Test System: AMES SALMONELLA TYPHIMURIUM, Strain/Indicator: TA100, Metabolic Activation: NONE, Method: STANDARD PLATE
[2] = Test System: AMES SALMONELLA TYPHIMURIUM, Strain/Indicator: TA98, Metabolic Activation: NONE, Method: STANDARD PLATE
[3] = Test System: AMES SALMONELLA TYPHIMURIUM, Strain/Indicator: TA100(NR), Metabolic Activation: NONE, Method: STANDARD PLATE
[4] = Test System: AMES SALMONELLA TYPHIMURIUM, Strain/Indicator: TA98, Metabolic Activation: RAT, LIVER, S-9, AROCLOR 1254, Method: STANDARD PLATE

Measured: mutagenic call

O[C@H]1C=Cc2c(cc3c4c(c5ccccc5cc24)-c2ccccc2-3)[C@@H]1O
active: Test System: AMES SALMONELLA TYPHIMURIUM, Strain/Indicator: TA100, Metabolic Activation: MOUSE, LIVER, S-9, 3-METHYLCHOLANTHRENE, Method: STANDARD PLATE active; positive | Test System: AMES SALMONELLA TYPHIMURIUM, Strain/Indicator: TA100, Metabolic Activation: RAT, LIVER, S-9, 3-METHYLCHOLANTHRENE, Method: STANDARD PLATE active; positive

CC1(C)[C@@H]2CC[C@@]1(C)[C@@H](O)C2
inactive: Test System: AMES SALMONELLA TYPHIMURIUM, Strain/Indicator: TA97, Metabolic Activation: NONE, Method: PREINCUBATION inactive; negative | Test System: AMES SALMONELLA TYPHIMURIUM, Strain/Indicator: TA97, Metabolic Activation: NONE, Method: PREINCUBATION (20 MIN) inactive; negative | Test System: AMES SALMONELLA TYPHIMURIUM, Strain/Indicator: TA97, Metabolic Activation: RAT, LIVER, S-9, AROCLOR 1254, Method: PREINCUBATION inactive; negative | Test System: AMES SALMONELLA TYPHIMURIUM, Strain/Indicator: TA97, Metabolic Activation: S-9, Method: PREINCUBATION (20 MIN) inactive; negative | Test System: AMES SALMONELLA TYPHIMURIUM, Strain/Indicator: TA98, Metabolic Activation: NONE, Method: PREINCUBATION (20 MIN) inactive; negative | Test System: AMES SALMONELLA TYPHIMURIUM, Strain/Indicator: TA98, Metabolic Activation: S-9, Method: PREINCUBATION (20 MIN) inactive; negative | Test System: AMES SALMONELLA TYPHIMURIUM, Strain/Indicator: TA100, Metabolic Activation: NONE, Method: PREINCUBATION (20 MIN) inactive; negative | Test System: AMES SALMONELLA TYPHIMURIUM, Strain/Indicator: TA100, Metabolic Activation: S-9, Method: PREINCUBATION (20 MIN) inactive; negative | Test System: AMES SALMONELLA TYPHIMURIUM, Strain/Indicator: TA102, Metabolic Activation: NONE, Method: PREINCUBATION inactive; negative | Test System: AMES SALMONELLA TYPHIMURIUM, Strain/Indicator: TA102, Metabolic Activation: RAT, LIVER, S-9, AROCLOR 1254, Method: PREINCUBATION inactive; negative

O=C1OCC(CBr)=C1Cl
active: [1] active; positive

O=[N+]([O-])c1ccc(/C=C/c2cccc(Cl)c2)cc1
active: Test System: AMES SALMONELLA TYPHIMURIUM, Strain/Indicator: TA98 (NR), Metabolic Activation: NONE, Method: STANDARD PLATE active; positive | Test System: AMES SALMONELLA TYPHIMURIUM, Strain/Indicator: TA98 (NR), Metabolic Activation: S-9, Method: STANDARD PLATE active; positive | [2] active; positive | Test System: AMES SALMONELLA TYPHIMURIUM, Strain/Indicator: TA98, Metabolic Activation: S-9, Method: STANDARD PLATE active; positive | Test System: AMES SALMONELLA TYPHIMURIUM, Strain/Indicator: TA100 (NR), Metabolic Activation: S-9, Method: STANDARD PLATE active; positive | [1] active; positive | Test System: AMES SALMONELLA TYPHIMURIUM, Strain/Indicator: TA100, Metabolic Activation: S-9, Method: STANDARD PLATE active; positive
inactive: [3] inactive; negative

O=[N+]([O-])c1c2ccccc2cc2c3c(ccc12)[C@@H](O)[C@H](O)C=C3
inactive: [1] inactive; negative
active: [2] active; positive

O=[N+]([O-])c1ccc2c3c(cccc13)-c1ccccc1-2
active: Test System: AMES SALMONELLA TYPHIMURIUM, Strain/Indicator: TA97, Metabolic Activation: NONE active; positive | Test System: AMES SALMONELLA TYPHIMURIUM, Strain/Indicator: TA98(1,8-DNP6), Metabolic Activation: NONE active; positive | Test System: AMES SALMONELLA TYPHIMURIUM, Strain/Indicator: TA98(1,8-DNP6), Metabolic Activation: NONE, Method: STANDARD PLATE active; positive | Test System: AMES SALMONELLA TYPHIMURIUM, Strain/Indicator: TA98(NR), Metabolic Activation: NONE active; positive | Test System: AMES SALMONELLA TYPHIMURIUM, Strain/Indicator: TA98(NR), Metabolic Activation: NONE, Method: STANDARD PLATE active; positive | Test System: AMES SALMONELLA TYPHIMURIUM, Strain/Indicator: TA98, Metabolic Activation: NONE active; positive | [4] active; positive | Test System: AMES SALMONELLA TYPHIMURIUM, Strain/Indicator: TA100, Metabolic Activation: NONE active; positive | [1] active; positive | Test System: AMES SALMONELLA TYPHIMURIUM, Strain/Indicator: TA1537, Metabolic Activation: NONE active; positive | Test System: AMES SALMONELLA TYPHIMURIUM, Strain/Indicator: TA1538, Metabolic Activation: NONE active; positive | Test System: AMES SALMONELLA TYPHIMURIUM, Strain/Indicator: TA1978, Metabolic Activation: NONE active; positive | Test System: AMES SALMONELLA TYPHIMURIUM, Strain/Indicator: TA7001, Metabolic Activation: NONE, Method: PREINCUBATION active; positive | Test System: AMES SALMONELLA TYPHIMURIUM, Strain/Indicator: TA7002, Metabolic Activation: NONE, Method: PREINCUBATION active; positive | Test System: AMES SALMONELLA TYPHIMURIUM, Strain/Indicator: TA7003, Metabolic Activation: NONE, Method: PREINCUBATION active; positive | Test System: AMES SALMONELLA TYPHIMURIUM, Strain/Indicator: TA7004, Metabolic Activation: NONE, Method: PREINCUBATION active; positive | Test System: AMES SALMONELLA TYPHIMURIUM, Strain/Indicator: TA7005, Metabolic Activation: NONE, Method: PREINCUBATION active; positive | Test System: AMES SALMONELLA TYPHIMURIUM, Strain/Indicator: TA7006, Metabolic Activation: NONE, Method: PREINCUBATION active; positive | Test System: AMES SALMONELLA TYPHIMURIUM, Strain/Indicator: TM677, Metabolic Activation: RAT, LIVER, S-9, AROCLOR 1254, Method: STANDARD PLATE active; positive
inactive: [3] inactive; negative | Test System: AMES SALMONELLA TYPHIMURIUM, Strain/Indicator: TA100(TN5-1,8-DNP1012), Metabolic Activation: NONE, Method: STANDARD PLATE inactive; negative | Test System: AMES SALMONELLA TYPHIMURIUM, Strain/Indicator: TA1535, Metabolic Activation: NONE inactive; negative

Clc1ccc2c(c1)C(c1ccccc1)=NCc1nncn1-2
inactive: [2] inactive; negative | [4] inactive; negative | [1] inactive; negative | Test System: AMES SALMONELLA TYPHIMURIUM, Strain/Indicator: TA100, Metabolic Activation: RAT, LIVER, S-9, AROCLOR 1254, Method: STANDARD PLATE inactive; negative | Test System: AMES SALMONELLA TYPHIMURIUM, Strain/Indicator: TA102, Metabolic Activation: NONE, Method: STANDARD PLATE inactive; negative | Test System: AMES SALMONELLA TYPHIMURIUM, Strain/Indicator: TA102, Metabolic Activation: RAT, LIVER, S-9, AROCLOR 1254, Method: STANDARD PLATE inactive; negative | Test System: AMES SALMONELLA TYPHIMURIUM, Strain/Indicator: TA1535, Metabolic Activation: NONE, Method: STANDARD PLATE inactive; negative | Test System: AMES SALMONELLA TYPHIMURIUM, Strain/Indicator: TA1535, Metabolic Activation: RAT, LIVER, S-9, AROCLOR 1254, Method: STANDARD PLATE inactive; negative | Test System: AMES SALMONELLA TYPHIMURIUM, Strain/Indicator: TA1537, Metabolic Activation: NONE, Method: STANDARD PLATE inactive; negative | Test System: AMES SALMONELLA TYPHIMURIUM, Strain/Indicator: TA1537, Metabolic Activation: RAT, LIVER, S-9, AROCLOR 1254, Method: STANDARD PLATE inactive; negative | Test System: E. COLI, Strain/Indicator: WP2 UVRA, Metabolic Activation: NONE, Method: STANDARD PLATE inactive; negative | Test System: E. COLI, Strain/Indicator: WP2 UVRA, Metabolic Activation: RAT, LIVER, S-9, AROCLOR 1254, Method: STANDARD PLATE inactive; negative
